Measured values: the kinase profiling compilation of Christmann-Franck et al. (2016)

How the values were obtained:
Assay in all cases: KINOMEscan competition binding
Details in all cases: compound 1.0 µM
PDGFRB (human) = PDGFRB (human) (UniProt P09619)
ICK (human) = ICK (human) (UniProt Q9UPZ9)
MAP4K1 (human) = MAP4K1 (human) (UniProt Q92918)
PI4KB (human) = PI4KB (human) (UniProt Q9UBF8)
NIM1 (human) = NIM1 (human) (UniProt Q8IY84)
IRAK4 (human) = IRAK4 (human) (UniProt Q9NWZ3)
CAMK2B (human) = CAMK2B (human) (UniProt Q13554)
TXK (human) = TXK (human) (UniProt P42681)
NEK3 (human) = NEK3 (human) (UniProt P51956)
TBK1 (human) = TBK1 (human) (UniProt Q9UHD2)
BMPR1A (human) = BMPR1A (human) (UniProt P36894)
ROS1 (human) = ROS1 (human) (UniProt P08922)
Sequence of ROS1 (human) (P08922 whole entry, looked up): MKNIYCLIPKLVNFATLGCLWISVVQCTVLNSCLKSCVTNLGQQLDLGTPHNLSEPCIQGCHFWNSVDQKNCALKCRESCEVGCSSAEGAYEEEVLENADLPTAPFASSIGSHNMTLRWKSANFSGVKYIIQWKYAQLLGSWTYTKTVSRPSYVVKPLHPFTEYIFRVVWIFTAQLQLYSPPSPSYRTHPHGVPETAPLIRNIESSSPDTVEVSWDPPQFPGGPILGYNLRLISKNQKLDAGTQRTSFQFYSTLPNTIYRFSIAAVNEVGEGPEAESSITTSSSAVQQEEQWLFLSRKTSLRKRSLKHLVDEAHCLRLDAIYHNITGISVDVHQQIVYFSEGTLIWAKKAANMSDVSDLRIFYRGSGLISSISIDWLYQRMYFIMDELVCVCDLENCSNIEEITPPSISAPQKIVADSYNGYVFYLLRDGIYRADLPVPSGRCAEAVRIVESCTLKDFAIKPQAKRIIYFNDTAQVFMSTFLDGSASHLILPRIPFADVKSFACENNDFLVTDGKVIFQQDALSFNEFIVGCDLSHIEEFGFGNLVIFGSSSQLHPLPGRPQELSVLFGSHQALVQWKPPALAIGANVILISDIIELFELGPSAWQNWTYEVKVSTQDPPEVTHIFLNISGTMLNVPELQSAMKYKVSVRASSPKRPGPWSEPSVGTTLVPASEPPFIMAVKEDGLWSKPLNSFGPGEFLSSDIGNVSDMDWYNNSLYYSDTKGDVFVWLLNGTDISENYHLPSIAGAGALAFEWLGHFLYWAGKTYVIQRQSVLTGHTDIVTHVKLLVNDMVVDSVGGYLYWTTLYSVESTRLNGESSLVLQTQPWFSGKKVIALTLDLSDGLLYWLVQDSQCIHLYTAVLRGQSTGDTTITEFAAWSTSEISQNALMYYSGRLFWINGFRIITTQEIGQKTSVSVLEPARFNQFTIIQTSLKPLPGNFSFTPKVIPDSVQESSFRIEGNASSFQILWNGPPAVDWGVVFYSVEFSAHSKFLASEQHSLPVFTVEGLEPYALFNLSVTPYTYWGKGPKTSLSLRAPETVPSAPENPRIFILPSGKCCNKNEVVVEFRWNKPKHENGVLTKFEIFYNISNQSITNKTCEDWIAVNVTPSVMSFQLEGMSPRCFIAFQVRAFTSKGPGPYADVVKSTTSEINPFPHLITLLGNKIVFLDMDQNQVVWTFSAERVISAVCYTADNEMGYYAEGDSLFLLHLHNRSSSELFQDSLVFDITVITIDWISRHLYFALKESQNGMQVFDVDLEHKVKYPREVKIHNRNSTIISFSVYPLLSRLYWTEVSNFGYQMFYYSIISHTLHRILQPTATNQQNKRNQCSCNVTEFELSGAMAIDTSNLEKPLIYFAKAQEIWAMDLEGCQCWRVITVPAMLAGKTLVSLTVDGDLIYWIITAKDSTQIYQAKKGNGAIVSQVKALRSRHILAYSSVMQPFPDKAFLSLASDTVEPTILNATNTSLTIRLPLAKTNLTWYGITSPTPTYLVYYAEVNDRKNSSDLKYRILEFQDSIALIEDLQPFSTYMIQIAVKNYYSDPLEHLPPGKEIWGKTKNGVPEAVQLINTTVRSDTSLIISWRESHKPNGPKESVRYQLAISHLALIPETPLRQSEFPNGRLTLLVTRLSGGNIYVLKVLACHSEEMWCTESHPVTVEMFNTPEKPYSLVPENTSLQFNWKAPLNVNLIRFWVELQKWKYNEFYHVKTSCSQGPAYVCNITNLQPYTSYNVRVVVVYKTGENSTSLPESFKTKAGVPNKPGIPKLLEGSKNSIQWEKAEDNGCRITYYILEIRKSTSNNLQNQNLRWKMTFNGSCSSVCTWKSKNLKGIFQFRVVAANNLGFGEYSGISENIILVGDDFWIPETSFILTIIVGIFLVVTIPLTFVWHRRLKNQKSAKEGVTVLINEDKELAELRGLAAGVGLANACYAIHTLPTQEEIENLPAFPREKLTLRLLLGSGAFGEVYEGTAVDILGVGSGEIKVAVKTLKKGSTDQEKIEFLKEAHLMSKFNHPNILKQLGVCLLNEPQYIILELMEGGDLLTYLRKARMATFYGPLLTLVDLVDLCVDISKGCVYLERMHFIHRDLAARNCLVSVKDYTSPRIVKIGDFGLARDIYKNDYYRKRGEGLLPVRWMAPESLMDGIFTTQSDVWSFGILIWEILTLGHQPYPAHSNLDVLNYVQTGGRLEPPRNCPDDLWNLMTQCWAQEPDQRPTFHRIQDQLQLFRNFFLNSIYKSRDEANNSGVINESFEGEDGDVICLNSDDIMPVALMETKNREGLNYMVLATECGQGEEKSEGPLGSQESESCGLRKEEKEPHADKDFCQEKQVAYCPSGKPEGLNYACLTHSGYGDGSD

PRPF4B (human) = PRPF4B (human) (UniProt Q13523)
PRKAA1 (human) = PRKAA1 (human) (UniProt Q13131)
GSK3A (human) = GSK3A (human) (UniProt P49840)
Sequence of GSK3A (human) (P49840 whole entry, looked up): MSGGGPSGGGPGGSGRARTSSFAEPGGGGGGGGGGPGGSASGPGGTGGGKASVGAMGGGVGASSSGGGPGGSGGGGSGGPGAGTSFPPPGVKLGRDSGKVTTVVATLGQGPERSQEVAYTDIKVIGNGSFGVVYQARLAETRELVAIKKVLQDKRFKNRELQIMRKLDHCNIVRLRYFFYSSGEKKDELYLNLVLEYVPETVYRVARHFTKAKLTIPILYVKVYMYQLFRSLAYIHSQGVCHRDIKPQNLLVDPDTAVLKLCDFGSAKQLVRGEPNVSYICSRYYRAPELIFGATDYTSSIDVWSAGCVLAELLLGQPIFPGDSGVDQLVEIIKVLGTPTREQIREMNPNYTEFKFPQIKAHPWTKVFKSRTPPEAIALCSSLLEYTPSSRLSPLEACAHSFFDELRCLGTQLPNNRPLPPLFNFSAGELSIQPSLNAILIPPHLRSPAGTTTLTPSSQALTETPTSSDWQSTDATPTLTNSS

WNK3 (human) = WNK3 (human) (UniProt Q9BYP7)
[1] = system: PIK3CA (human), P42336 [E545A]
PAK6 (human) = PAK6 (human) (UniProt Q9NQU5)
PRKACA (human) = PRKACA (human) (UniProt P17612)
ACVR1B (human) = ACVR1B (human) (UniProt P36896)
EPHA5 (human) = EPHA5 (human) (UniProt P54756)
ACVRL1 (human) = ACVRL1 (human) (UniProt P37023)
PLK4 (human) = PLK4 (human) (UniProt O00444)
[2] = target: JAK3 JH1 catalytic (human) (UniProt P52333)
PIK3CA (human) = PIK3CA (human) (UniProt P42336)
ULK1 (human) = ULK1 (human) (UniProt O75385)
[3] = system: FLT3 (human), P36888 [D835Y]
RET (human) = RET (human) (UniProt P07949)
CDKL1 (human) = CDKL1 (human) (UniProt Q00532)
CDK16 (human) = CDK16 (human) (UniProt Q00536)
Sequence of CDK16 (human) (Q00536 whole entry, looked up): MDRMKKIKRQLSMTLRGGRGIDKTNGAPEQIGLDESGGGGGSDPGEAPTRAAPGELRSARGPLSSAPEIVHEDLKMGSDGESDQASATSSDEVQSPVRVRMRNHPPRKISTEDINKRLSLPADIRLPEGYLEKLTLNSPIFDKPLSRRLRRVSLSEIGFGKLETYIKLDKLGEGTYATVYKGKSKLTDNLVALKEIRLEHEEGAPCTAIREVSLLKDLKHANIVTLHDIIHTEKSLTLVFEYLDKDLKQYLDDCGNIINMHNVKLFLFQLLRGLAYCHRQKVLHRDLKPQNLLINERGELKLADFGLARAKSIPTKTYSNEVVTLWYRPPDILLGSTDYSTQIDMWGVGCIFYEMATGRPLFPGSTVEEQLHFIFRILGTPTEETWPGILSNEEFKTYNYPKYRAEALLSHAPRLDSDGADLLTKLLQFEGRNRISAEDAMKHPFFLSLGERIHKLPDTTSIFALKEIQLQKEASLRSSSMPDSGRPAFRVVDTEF

[4] = system: KIT (human), P10721 [V559D/T670I]
RIPK1 (human) = RIPK1 (human) (UniProt Q13546)
[5] = system: KIT (human), P10721 [D816V]
[6] = target: TYK2 JH2 pseudokinase (human) (UniProt P29597)
MAP2K3 (human) = MAP2K3 (human) (UniProt P46734)
Sequence of MAP2K3 (human) (P46734 whole entry, looked up): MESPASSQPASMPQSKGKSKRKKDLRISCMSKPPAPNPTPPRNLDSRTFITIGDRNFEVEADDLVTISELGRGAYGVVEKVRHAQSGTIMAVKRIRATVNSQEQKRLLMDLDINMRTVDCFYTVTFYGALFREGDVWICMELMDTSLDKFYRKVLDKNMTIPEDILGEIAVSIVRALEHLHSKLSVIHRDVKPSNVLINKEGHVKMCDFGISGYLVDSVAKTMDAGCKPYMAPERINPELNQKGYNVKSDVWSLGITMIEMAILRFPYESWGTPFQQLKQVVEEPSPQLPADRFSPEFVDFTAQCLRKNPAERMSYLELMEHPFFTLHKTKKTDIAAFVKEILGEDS

MYO3B (human) = MYO3B (human) (UniProt Q8WXR4)
BLK (human) = BLK (human) (UniProt P51451)
STK10 (human) = STK10 (human) (UniProt O94804)
FES (human) = FES (human) (UniProt P07332)

Sequence of MAP4K1 (human) (Q92918 whole entry, looked up): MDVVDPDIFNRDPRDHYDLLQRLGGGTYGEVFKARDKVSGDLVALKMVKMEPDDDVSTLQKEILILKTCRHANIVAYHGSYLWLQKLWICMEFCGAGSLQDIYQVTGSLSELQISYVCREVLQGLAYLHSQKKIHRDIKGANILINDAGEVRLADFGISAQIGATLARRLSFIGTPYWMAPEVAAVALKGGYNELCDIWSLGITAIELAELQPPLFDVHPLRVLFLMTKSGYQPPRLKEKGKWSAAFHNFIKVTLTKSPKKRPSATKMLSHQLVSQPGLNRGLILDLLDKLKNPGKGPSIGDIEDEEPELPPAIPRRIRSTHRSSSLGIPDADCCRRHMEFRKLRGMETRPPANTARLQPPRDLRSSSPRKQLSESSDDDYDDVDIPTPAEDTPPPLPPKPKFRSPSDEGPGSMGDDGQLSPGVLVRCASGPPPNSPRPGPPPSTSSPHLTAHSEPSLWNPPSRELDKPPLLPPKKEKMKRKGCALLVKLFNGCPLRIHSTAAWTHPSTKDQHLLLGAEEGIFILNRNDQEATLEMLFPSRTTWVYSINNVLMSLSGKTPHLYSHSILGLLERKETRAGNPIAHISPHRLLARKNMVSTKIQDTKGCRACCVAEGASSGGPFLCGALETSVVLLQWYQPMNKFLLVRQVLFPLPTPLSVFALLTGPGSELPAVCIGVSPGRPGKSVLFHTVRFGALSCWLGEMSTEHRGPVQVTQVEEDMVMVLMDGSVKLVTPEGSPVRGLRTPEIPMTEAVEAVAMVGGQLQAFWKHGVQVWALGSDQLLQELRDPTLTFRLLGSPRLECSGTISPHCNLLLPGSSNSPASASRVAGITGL
Sequence of IRAK4 (human) (Q9NWZ3 whole entry, looked up): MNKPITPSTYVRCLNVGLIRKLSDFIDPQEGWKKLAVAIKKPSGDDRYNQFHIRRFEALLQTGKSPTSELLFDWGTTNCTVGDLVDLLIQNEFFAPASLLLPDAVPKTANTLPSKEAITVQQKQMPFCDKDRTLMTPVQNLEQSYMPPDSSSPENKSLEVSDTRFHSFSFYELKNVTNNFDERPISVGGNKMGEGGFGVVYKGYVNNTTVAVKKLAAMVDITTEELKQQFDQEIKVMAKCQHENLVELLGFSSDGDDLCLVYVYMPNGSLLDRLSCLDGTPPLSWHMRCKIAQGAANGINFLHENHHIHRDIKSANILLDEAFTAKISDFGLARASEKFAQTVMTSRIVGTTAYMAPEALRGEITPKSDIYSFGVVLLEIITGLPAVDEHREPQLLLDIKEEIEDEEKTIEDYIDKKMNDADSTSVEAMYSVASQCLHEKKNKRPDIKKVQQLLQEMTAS

CNc1nc(Nc2ccc(C(=O)N3CCOCC3)cc2OC)ncc1Cl
kinase still bound, per cent of control (PDGFRB (human)): 76% | kinase still bound, per cent of control (ICK (human)): 100% | kinase still bound, per cent of control (MAP4K1 (human)): 100% | kinase still bound, per cent of control (PI4KB (human)): 100% | kinase still bound, per cent of control (NIM1 (human)): 100% | kinase still bound, per cent of control (IRAK4 (human)): 100% | kinase still bound, per cent of control (CAMK2B (human)): 89% | kinase still bound, per cent of control (TXK (human)): 100% | kinase still bound, per cent of control (NEK3 (human)): 100% | kinase still bound, per cent of control (TBK1 (human)): 100% | kinase still bound, per cent of control (BMPR1A (human)): 100% | kinase still bound, per cent of control (ROS1 (human)): 100% | kinase still bound, per cent of control (PRPF4B (human)): 98% | kinase still bound, per cent of control (PRKAA1 (human)): 95% | kinase still bound, per cent of control (GSK3A (human)): 100% | kinase still bound, per cent of control (WNK3 (human)): 93% | kinase still bound, per cent of control [1]: 68% | kinase still bound, per cent of control (PAK6 (human)): 100% | residual activity (PRKACA (human)): 100% | kinase still bound, per cent of control (ACVR1B (human)): 100% | kinase still bound, per cent of control (EPHA5 (human)): 100% | kinase still bound, per cent of control (ACVRL1 (human)): 100% | kinase still bound, per cent of control (PLK4 (human)): 62% | kinase still bound, per cent of control [2]: 90% | kinase still bound, per cent of control (PIK3CA (human)): 100% | kinase still bound, per cent of control (ULK1 (human)): 100% | kinase still bound, per cent of control [3]: 72% | kinase still bound, per cent of control (RET (human)): 96% | residual activity (CDKL1 (human)): 100% | residual activity (CDK16 (human)): 100% | kinase still bound, per cent of control [4]: 100% | kinase still bound, per cent of control (RIPK1 (human)): 100% | kinase still bound, per cent of control [5]: 98% | kinase still bound, per cent of control [6]: 100% | kinase still bound, per cent of control (MAP2K3 (human)): 93% | kinase still bound, per cent of control (MYO3B (human)): 100% | kinase still bound, per cent of control (BLK (human)): 100% | kinase still bound, per cent of control (STK10 (human)): 100% | kinase still bound, per cent of control (FES (human)): 100%
